From US4347319A, “Microbiological epoxidation process” (priority 1980, dated 1982)

Legend:
Experiment in all cases: Oxidation by cell fractions P(40), P(80), S(80)
Type in all cases: biochemical
[1] = molecular target: T1, cell fractions of Methylosinus sp. (CRL-15, NRRL B-11,202) (Methylosinus trichosporium, UniProt Q50541+Q9KX50+Q9KX51); settings: for Rate of Product Formation: P(40) particulate fraction, alkene to epoxide, alkane to alcohol; for Rate of Product Formation / Oxidizing Activity (rate of oxidation) in cell fraction: 30° C.; for Conversion Rate: particulate P(40) fraction, n-propane to 2-propanol, n-butane to 2-butanol; for 100% activity, product formed (storage study) / 100% activity, product formed (pH study) / 100% activity, product formed (temperature study) / Oxidizing Activity (rate of oxidation) in cell fraction: methane to methanol, propylene to propylene oxide; for 100% activity, product formed (pH study): optimum pH 7.0; for 100% activity, product formed (temperature study): optimum temperature 35° C.; for % Distribution in Cell Fraction: propylene-epoxidizing / methane-hydroxylating activity; for Product Formed / O2 Consumed / NADH Oxidized: stoichiometry, 5.0 μ moles substrate; for Product Formed: gas chromatography; for O2 Consumed: polarographically; for NADH Oxidized: spectrophotometrically
T1 sequence (Q9KX50 40-431): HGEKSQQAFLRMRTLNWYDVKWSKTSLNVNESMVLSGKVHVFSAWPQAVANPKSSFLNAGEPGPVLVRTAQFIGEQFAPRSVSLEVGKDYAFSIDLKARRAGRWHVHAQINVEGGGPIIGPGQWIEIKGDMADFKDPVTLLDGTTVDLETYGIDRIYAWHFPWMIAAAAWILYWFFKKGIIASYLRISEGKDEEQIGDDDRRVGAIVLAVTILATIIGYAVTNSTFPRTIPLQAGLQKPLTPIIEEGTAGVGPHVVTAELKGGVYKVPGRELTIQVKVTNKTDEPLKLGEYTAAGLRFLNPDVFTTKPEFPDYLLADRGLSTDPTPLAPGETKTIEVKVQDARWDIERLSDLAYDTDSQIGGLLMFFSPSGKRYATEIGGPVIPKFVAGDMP
T1 sequence (Q50541 1-252): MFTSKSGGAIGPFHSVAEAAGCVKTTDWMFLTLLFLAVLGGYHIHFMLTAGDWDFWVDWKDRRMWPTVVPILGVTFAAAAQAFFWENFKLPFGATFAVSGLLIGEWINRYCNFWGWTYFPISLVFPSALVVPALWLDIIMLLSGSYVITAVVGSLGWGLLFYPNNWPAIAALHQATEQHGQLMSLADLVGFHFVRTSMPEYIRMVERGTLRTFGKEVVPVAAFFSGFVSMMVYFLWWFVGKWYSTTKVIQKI
T1 sequence (Q9KX51 1-256): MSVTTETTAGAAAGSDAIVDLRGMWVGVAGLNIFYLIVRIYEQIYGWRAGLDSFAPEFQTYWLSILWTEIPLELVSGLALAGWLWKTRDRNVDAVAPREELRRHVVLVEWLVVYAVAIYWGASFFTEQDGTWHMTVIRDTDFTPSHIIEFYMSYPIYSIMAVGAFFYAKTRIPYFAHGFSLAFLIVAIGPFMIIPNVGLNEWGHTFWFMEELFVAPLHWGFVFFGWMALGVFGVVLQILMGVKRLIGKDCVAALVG
Description: (§1) Cells were washed twice with 25 mM potassium phosphate buffer, pH 7.0 containing 5 mM MgCl2. Cells were suspended in the same buffer. The cell suspensions at 4° C. were disintegrated by a single passage through a French Pressure cell (15,000 lb./in.^2) and centrifuged at 5000×g. for 15 min. to remove unbroken bacteria. The supernatant solution (crude extract) was then centrifuged at 40,000×g. for 30 min., yielding particulate P(40) and soluble S(40) fractions. The S(40) fraction was subsequently centrifuged at 80,000×g. for 60 min., yielding particulate P(80) and soluble S(80) fractions. The particulate fractions [P(40) and P(80)] were suspended in 25 mM potassium phosphate buffer, pH 7.0, containing 5 mM MgCl2 and homogenized at 4° C.
(§2) The oxidation of methane and propylene by particulate [(P)40 and (P)80] fractions and soluble [S(80)] fraction was measured at 30° C. by estimating the production of methanol and propylene oxide, respectively. The reaction mixtures contained in […]: 150 mM potassium phosphate buffer, pH 7.0 containing 5 mM MgCl2 b, 0.6 ml; 10μ moles NADH, and cellular fraction.
(§3) Reaction mixtures were contained in 10 ml vials at 4° C. Vials were sealed with rubber caps. The gaseous phase in the vials was removed using vacuum and then was replaced with a gas mixture of methane or propylene and oxygen at a 1:1, v/v ratio. Oxidation of other gaseous n-alkanes and n-alkanes was examined as described above. For liquid substrates, 10 μl of substrate was used directly.
(§4) The products of epoxidation of n-alkenes and hydroxylation of n-alkanes were assayed by flame ionization gas chromatography using a stainless steel column (12'×1/8") packed with 10% Carbowax 20 M on 80/100 Chromosorb W and Porapak Q column. The column temperature was maintained isothermally at 120° C. The carrier gas flow rate was 30 ml/min. of helium. The various products were identified by retention time comparisons and co-chromatography with authentic standards.
(§5) Specific activities were expressed as μ moles of products formed per hour per mg. protein. Concentrations of protein in various fractions were determined by the method of Lowry et al., J. Biol. Chem., 193: 265-275 (1951).

[2] = system: cell fractions of Methylobacterium sp. (CRL-26, NRRL B-11,222); settings: for Conversion Rate: particulate P(40) fraction, n-propane to 2-propanol, n-butane to 2-butanol; for Oxidizing Activity (rate of oxidation) in cell fraction: propylene to propylene oxide, methane to methanol, 30° C.
Description: as §1, §2, §3, §4, §5

[3] = molecular target: T2, cell fractions of Methylococcus capsulatus (Texas, ATCC 19,069) (Methylococcus capsulatus, UniProt G1UBD1+Q603F1+Q607G3); settings: for Conversion Rate: particulate P(40) fraction, n-propane to 2-propanol, n-butane to 2-butanol; for Oxidizing Activity (rate of oxidation) in cell fraction: propylene to propylene oxide, methane to methanol, 30° C.; for % Distribution in Cell Fraction: propylene-epoxidizing / methane-hydroxylating activity
T2 sequence (G1UBD1 33-414): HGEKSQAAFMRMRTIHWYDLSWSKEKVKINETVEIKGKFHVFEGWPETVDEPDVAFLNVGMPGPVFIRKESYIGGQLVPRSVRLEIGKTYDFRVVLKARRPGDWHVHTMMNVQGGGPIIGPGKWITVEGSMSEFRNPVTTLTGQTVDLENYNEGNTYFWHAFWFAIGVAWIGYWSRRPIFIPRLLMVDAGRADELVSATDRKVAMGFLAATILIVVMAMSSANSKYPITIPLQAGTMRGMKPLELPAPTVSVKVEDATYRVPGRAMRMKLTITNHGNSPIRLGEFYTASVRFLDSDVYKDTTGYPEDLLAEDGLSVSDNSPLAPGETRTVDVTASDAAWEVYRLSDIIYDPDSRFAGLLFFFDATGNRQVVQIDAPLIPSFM
T2 sequence (Q607G3 1-247): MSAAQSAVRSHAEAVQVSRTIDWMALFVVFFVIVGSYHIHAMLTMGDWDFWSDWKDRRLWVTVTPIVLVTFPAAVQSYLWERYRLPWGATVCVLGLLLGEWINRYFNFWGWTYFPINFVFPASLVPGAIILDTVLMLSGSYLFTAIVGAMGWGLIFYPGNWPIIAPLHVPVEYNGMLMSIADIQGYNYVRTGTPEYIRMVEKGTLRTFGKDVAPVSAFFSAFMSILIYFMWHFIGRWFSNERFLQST
T2 sequence (Q603F1 1-260): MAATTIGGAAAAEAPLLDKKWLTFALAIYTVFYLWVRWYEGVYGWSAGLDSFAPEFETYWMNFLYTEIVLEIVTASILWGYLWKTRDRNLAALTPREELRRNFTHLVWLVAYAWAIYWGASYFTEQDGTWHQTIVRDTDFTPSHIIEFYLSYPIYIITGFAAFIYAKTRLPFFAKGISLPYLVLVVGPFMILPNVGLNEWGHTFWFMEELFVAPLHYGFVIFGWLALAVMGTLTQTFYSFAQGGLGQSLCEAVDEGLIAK
Description: as §1, §2, §3, §4, §5

| SMILES | Rate of Product Formation [1] | Conversion Rate [1] | Conversion Rate [2] | Conversion Rate [3] | 100% activity, product formed (storage study) ([1]; P(40)) | 100% activity, product formed (pH study) ([1]; P(40)) | 100% activity, product formed (temperature study) ([1]; P(40)) | Oxidizing Activity (rate of oxidation) in cell fraction ([1]; P(40)) | % Distribution in Cell Fraction ([1]; P(40)) | Oxidizing Activity (rate of oxidation) in cell fraction ([1]; P(80)) | % Distribution in Cell Fraction ([1]; P(80)) | Oxidizing Activity (rate of oxidation) in cell fraction ([1]; S(80)) | % Distribution in Cell Fraction ([1]; S(80)) | Product Formed ([1]; P(40)) | O2 Consumed ([1]; P(40)) | NADH Oxidized ([1]; P(40)) | Oxidizing Activity (rate of oxidation) in cell fraction ([2]; P(40)) | Oxidizing Activity (rate of oxidation) in cell fraction ([2]; P(80)) | Oxidizing Activity (rate of oxidation) in cell fraction ([2]; S(80)) | Oxidizing Activity (rate of oxidation) in cell fraction ([3]; P(40)) | other results |
| --- | --- | --- | --- | --- | --- | --- | --- | --- | --- | --- | --- | --- | --- | --- | --- | --- | --- | --- | --- | --- | --- |
| C=CC=C [Butadiene] | 0.63 μ moles/hr/mg of protein | – | – | – | – | – | – | – | – | – | – | – | – | – | – | – | – | – | – | – | – |
| CCCC [Butane] | – | 0.89 μmoles/hr/2.0mg. of protein | 0.61 μmoles/hr/2.0mg. of protein | 0.92 μmoles/hr/2.0mg. of protein | – | – | – | – | – | – | – | – | – | – | – | – | – | – | – | – | – |
| C [Methane] | 4.8 μ moles/hr/mg of protein | – | – | – | 4.8 μmoles per hr. per mg. of prot | 4.8 μmoles per hour per mg protein | 5.0 μmoles per hour per mg of prot | 4.8 μ moles of products formed per | 88% | 4.2 μ moles of products formed per | 12% | 0 μ moles of products formed per | 0% | 4.2 μ moles | 4.6 μ moles | 4.8 μ moles | 2.7 μ moles of products formed per | 2.8 μ moles of products formed per | 0 μ moles of products formed per | 3.8 μ moles of products formed per | % Distribution in Cell Fraction ([3]; P(40)): 90%; Oxidizing Activity (rate of oxidation) in cell fraction ([3]; P(80)): 3.9 μ moles of products formed per; % Distribution in Cell Fraction ([3]; P(80)): 10%; Oxidizing Activity (rate of oxidation) in cell fraction ([3]; S(80)): 0 μ moles of products formed per; % Distribution in Cell Fraction ([3]; S(80)): 0% |
| CCC [Propane] | – | 1.5 μmoles/hr/2.0mg. of protein | 1.0 μmoles/hr/2.0mg. of protein | 1.2 μmoles/hr/2.0mg. of protein | – | – | – | – | – | – | – | – | – | – | – | – | – | – | – | – | – |
| C=CC [Propylene] | 4.1 μ moles/hr/mg of protein | – | – | – | 4.1 μmoles per hr. per mg. of prot | 4.1 μmoles per hour per mg protein | 4.2 μmoles per hour per mg of prot | 3.8 μ moles of products formed per | 87% | 3.7 μ moles of products formed per | 13% | 0 μ moles of products formed per | 0% | 4.5 μ moles | 4.8 μ moles | 5.0 μ moles | 1.2 μ moles of products formed per | 1.1 μ moles of products formed per | 0 μ moles of products formed per | 2.6 μ moles of products formed per | % Distribution in Cell Fraction ([3]; P(40)): 89%; Oxidizing Activity (rate of oxidation) in cell fraction ([3]; P(80)): 2.0 μ moles of products formed per; % Distribution in Cell Fraction ([3]; P(80)): 11%; Oxidizing Activity (rate of oxidation) in cell fraction ([3]; S(80)): 0 μ moles of products formed per; % Distribution in Cell Fraction ([3]; S(80)): 0% |
